Laboratory results as given in article PMC6470589, “Contribution of Molecular Structure to Self-Assembling and Biological Properties of Bifunctional Lipid-Like 4-(N-Alkylpyridinium)-1,4-Dihydropyridines” (Pharmaceutics, 2019).
Where “and” joins values, the source holds several entries; their conditions need not be identical. Identical values can stand only once. Entries after “also recorded” stand apart in the source; their conditions may differ.

Tests used:
[1] = MTT cytotoxicity assay on HT-1080 tumor cells, 72 h; format: cell-based, human; conditions: human, HT-1080 fibrosarcoma cells
Procedure: (§1) Tumor cell lines HT-1080 (human connective tissue fibrosarcoma) and MH-22A (mouse hepatocarcinoma) were used. All of the cells were obtained from the American Type Culture Collection ((ATCC,) Rockville, MD, USA). HT-1080 and MH-22A cells (4 × 10^4 cell/mL) were seeded in 96-well plates in Dulbecco’s modified Eagle’s medium (DMEM) containing 10% fetal bovine serum and cultivated for 72 h at 37 °C, 5% CO2 by exposure to different compounds concentrations (100 μg/mL, 25 μg/mL, 6.25 μg/mL, and 1.56 μg/mL). Cell viability was measured using 3-(4,5-dimethylthiazol-2-yl)-2,5-diphenyl-tetrazolium bromide (MTT) assay. In brief, after incubating with compounds, the culture medium was removed and fresh medium with 0.2 mg/mL MTT was added in each well of the plate. After incubation (3 h, 37 °C, 5% CO2), the medium with MTT was removed, and 200 μL of DMSO was added at once to each sample. The samples were tested at 540 nm on a Tecan multiplate reader Infinite1000 (Tecan Austria GmbH, Salzburg, Austria). The IC50 was calculated using the program Graph Pad Prism® 3.0.

[2] = MTT cytotoxicity assay on MH-22A tumor cells, 72 h; format: cell-based, mouse; conditions: mouse, MH-22A hepatocarcinoma cells
Procedure: as §1

[3] = test system: Bacillus subtilis subsp. spizizenii; experiment: Toxicity screen, serial dilution-spot test; format: cell-based; conditions: gram positive; 24 h exposure in DI water, 28 °C; 0.0001 = no colonies at 0.001 mM;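 note: last dilution that did not fully inhibit growth with colonies still present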
Procedure: (§2) An estimation of the toxicity of 4-(N-alkylpyridinium)-1,4-DHP derivatives 3, 6, 7, and 9–11 was performed using six prokaryotic (bacteria) and one eukaryotic (yeast) microorganism species according to the procedure elaborated by Suppi et al.. The microorganisms used in the study and their origin were: Bacillus subtilis subsp. spizizenii (ATCC® 6633™*, Microbiologics®, St Cloud, MN, USA), Escherichia coli (ATCC® 8739, Microbiologics®), Klebsiella pneumoniae (Latvian Microorganisms strain collection, LMKK, strain number 535, Riga, Latvia), Micrococcus luteus (LMKK, No. 25), Pseudomonas aeruginosa (NCTC 12924, Biosciences Ltd., Dublin, Ireland), Proteus mirabilis (LMKK, No 590), and Saccharomyces cerevisiae, CEN.PK2 strain [32].
(§3) Bacteria and yeast cultures were cultivated until their exponential growth phase (optical density max 1); then, 100 µL of cell suspension was taken, washed in deionised (DI) water, and added to serially diluted samples of corresponding 4-(N-alkylpyridinium)-1,4-DHPs in DI water. All 1,4-DHPs were tested in five serially diluted concentrations (10 mM, 1 mM, 0.1 mM, 0.01 mM, and 0.001 mM). Test organisms were exposed to 1,4-DHP derivatives in DI water on 96-well microplates (Corning, Corning, NY, USA) at 28 °C for 24 h without shaking in the dark. Then, a 5 µL sample was taken from each well and spotted on yeast extract, bactopeptone, dextrose broth (YPD) (yeast extract 1%, bactopeptone 2%, glucose 2% and agar 2%) plates to test the growth of yeasts and lysogeny broth (LB) (yeast extract 0.5%, bactopeptone 1%, NaCl 0.5% and agar 2%) to test the growth for bacteria. Plates were left in 30 °C for 24 h, and assessed for microbial growth.
(§4) If there were no colonies after incubation with 1,4-DHPs in the last concentration of (0.001 mM), then their boundary concentration was set to 0.0001 mM or 0.1 µM.

Escherichia coli = experiment: Toxicity screen, serial dilution-spot test; format: cell-based; conditions: gram negative; 24 h exposure in DI water, 28 °C; 0.0001 = no colonies at 0.001 mM;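 note: last dilution that did not fully inhibit growth with colonies still present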
Procedure: as §2, §3, §4

Klebsiella pneumoniae = experiment: Toxicity screen, serial dilution-spot test; format: cell-based; conditions: gram negative; 24 h exposure in DI water, 28 °C; 0.0001 = no colonies at 0.001 mM;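 note: last dilution that did not fully inhibit growth with colonies still present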
Procedure: as §2, §3, §4

Micrococcus luteus = experiment: Toxicity screen, serial dilution-spot test; format: cell-based; conditions: gram positive; 24 h exposure in DI water, 28 °C; 0.0001 = no colonies at 0.001 mM;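 note: last dilution that did not fully inhibit growth with colonies still present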
Procedure: as §2, §3, §4

Proteus mirabilis = experiment: Toxicity screen, serial dilution-spot test; format: cell-based; conditions: gram negative; 24 h exposure in DI water, 28 °C; 0.0001 = no colonies at 0.001 mM;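 note: last dilution that did not fully inhibit growth with colonies still present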
Procedure: as §2, §3, §4

Pseudomonas aeruginosa = experiment: Toxicity screen, serial dilution-spot test; format: cell-based; conditions: gram negative; 24 h exposure in DI water, 28 °C; 0.0001 = no colonies at 0.001 mM;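 note: last dilution that did not fully inhibit growth with colonies still present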
Procedure: as §2, §3, §4

[4] = test system: Saccharomyces cerevisiae, CEN.PK2 strain; experiment: Toxicity screen, serial dilution-spot test; format: cell-based; conditions: yeast; 24 h exposure in DI water, 28 °C; 0.0001 = no colonies at 0.001 mM;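 note: last dilution that did not fully inhibit growth with colonies still present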
Procedure: as §2, §3, §4

[5] = test system: six prokaryotic (bacteria) and one eukaryotic (yeast) microorganism species; experiment: Toxicity screen, whole panel of microorganisms; format: cell-based; conditions: concentrations tested 10 to 0.001 mM
Procedure: as §2, §3, §4

[6] = Self-assembling properties by dynamic light scattering (DLS); format: physicochemical; conditions: for PDI ± SD, 1 Set: freshly prepared samples; for Zeta-Pot ± SD: freshly prepared samples in water, 0.5 mg/mL (1–7), 0.25 mg/mL (8–10), 0.1 mg/mL (11); for PDI ± SD, 2 Set: two weeks after the first set, samples stored at r.t.; for Stability of nanoparticles: two weeks of storage at r.t., DLS
Procedure: Samples of compounds for dynamic light scattering (DLS) studies were prepared by thin-film hydration method in an aqueous solution at a concentration of 0.5 mg/mL for compounds 1–7, 0.25 mg/mL for compounds 8–10, and 0.1 mg/mL for compound 11. A corresponding amount of compounds was weighted in a round-bottom flask and dissolved in chloroform; then, the organic solvent was removed in vacuo, and the residue was dried in high vacuo for 1 h. An appropriate amount of deionised water was added to each flask for the preparation of stock solutions with the above-mentioned concentrations. Samples were prepared by sonication using a bath-type sonicator (Cole Parmer Ultrasonic Cleaner 8891CPX (Vernon Hills, IL, USA)). Samples were sonicated for 60 min at 50 °C.
The DLS measurements of the nanoparticles in an aqueous solution were carried out on a Zetasizer Nano ZSP (Malvern Panalytical Ltd., Malvern, UK) instrument with Malvern Instruments Ltd. Software 7.12, using the following specifications—medium: water; refractive index: 1.33; viscosity: 0.8872 cP; temperature: 25 °C; dielectric constant: 78.5; nanoparticles: liposomes; refractive index of materials: 1.60; detection angle: 173°; wavelength: 633 nm. Data were analysed using the multimodal number distribution software that was included with the instrument. The measurements were performed in triplicate in order to check their reproducibility.

[7] = test system: MH-22A (mouse hepatocarcinoma) cells; experiment: MTT cytotoxicity assay on MH-22A tumor cells, 72 h; format: cell-based; conditions: MTT, 72 h; ne = no effect in the tested concentration (up to 100 μg/mL)
Procedure: as §1

[8] = MTT, 72 h, ne = no effect in the tested concentration (up to 100 μg/mL), read-out: Cytotoxicity IC50, HT-1080
[9] = MTT, 72 h, ne = no effect in the tested concentration (up to 100 μg/mL), read-out: Cytotoxicity IC50, MH-22A

Structure (SMILES) | IC50 at 72 h [1, 8] | IC50 at 72 h [2, 9] | Boundary concentration, B. subtilis [3] | Boundary concentration, E. coli (Escherichia coli) | Boundary concentration, K. pneumoniae (Klebsiella pneumoniae) | Boundary concentration, M. luteus (Micrococcus luteus) | Boundary concentration, P. mirabilis (Proteus mirabilis) | Boundary concentration, P. aeruginosa (Pseudomonas aeruginosa) | Boundary concentration, S. cerevisiae [4] | Effect on survival of microorganisms [5] | PDI ± SD, 1 Set [6] | Zeta-Pot ± SD [6] | PDI ± SD, 2 Set [6] | Stability of nanoparticles [6] | IC50 [7] | IC50 at 72 h ([1]; as printed in the supplementary toxicity table, read-out: Cytotoxicity, IC50, HT-1080 (supplementary table, for comparison)) | IC50 at 72 h ([2]; as printed in the supplementary toxicity table, read-out: Cytotoxicity, IC50, MH-22A (supplementary table, for comparison)) | Cytotoxicity IC50, MH-22A [7]
CCCCCCCCCCCC[n+]1cccc(C2C(C(=O)OCC)=C(C)NC(C)=C2C(=O)OCC)c1 [Compound 3] | 37 ± 2 µM | 15 ± 1 µM | 0.01 mM | 0.01 mM | 0.1 mM | 0.001 mM | 0.001 mM | 0.01 mM | 0.001 mM | toxic at various degrees | 0.14 and 0.14 ± 0.01 | +57.73 ± 2.30 mV | 0.17 and 0.17 ± 0.02 | stable after two weeks of storage; also recorded: confirmed the stability of nanoparticles | – | – | – | –
C#CCN1C(C)=C(C(=O)OCC)C(c2ccc[n+](CCCCCCCCCCCC)c2)C(C(=O)OCC)=C1C [Compound 6] | – | 1 to 4 µM | 0.0001 mM | 0.001 mM | 0.1 mM | 0.0001 mM | 1 mM | 0.01 mM | 0.001 mM | toxic at various degrees | 0.15 and 0.15 ± 0.02 | – | 0.20 and 0.20 ± 0.01 | stable after two weeks of storage; also recorded: confirmed the stability of nanoparticles | 1 ± 0.2 µM | – | – | –
C#CCOC(=O)C1=C(C)NC(C)=C(C(=O)OCC#C)C1c1ccc[n+](CC)c1 [Compound 7] | – | – | 0.1 mM | 1 mM | 10 mM | 0.001 mM | 0.1 mM | 0.01 mM | 1 mM | – | 0.90 and 0.90 ± 0.03 | −0.78 ± 0.26 mV | 0.73 ± 0.09 | weak stability | – | 1000 µM | 1000 µM | did not demonstrate any cytotoxic effect and ne
C#CCOC(=O)C1=C(C)NC(C)=C(C(=O)OCC#C)C1c1ccc[n+](CCCCCCCCCCCC)c1 [Compound 9] | 1 to 4 µM | 1 to 4 µM | 0.01 mM | 0.0001 mM | 0.1 mM | 0.0001 mM | 0.01 mM | 0.01 mM | 0.0001 mM | toxic at various degrees | 0.36 and 0.36 ± 0.08 | +32.00 ± 4.81 mV | 0.57 and 0.57 ± 0.05 | lost their homogeneity after two weeks of storage | 1 ± 0.2 µM | – | – | –
